In the NIST ThermoML archive (doi:10.1016/j.fluid.2014.06.015):
Numbers after ± are expanded uncertainties.

How the values were obtained:
[1] = 298.15 K; 101.33 kPa; Liquid; Vibrating tube method
[2] = refractive index (Na D-line) (dimensionless); settings: 298.15 K; 101.33 kPa; Liquid; Standard Abbe refractometry

| mass density [1] [kg/m3] | refractive index [2] | SMILES |
| --- | --- | --- |
| 802.35 ± 0.13 | 1.3936 ± 0.0005 | CCC(C)O (configuration not stated) [butan-2-ol] |
| 1258.52 ± 0.22 | 1.4726 ± 0.0005 | OCC(O)CO [glycerol] |
|  | 1.3325 ± 0.0005 | O [water] |

| SMILES | mass density [1] [kg/m3] | refractive index [2] |
| --- | --- | --- |
| CCC(C)(C)O [2-methylbutan-2-ol] | 804.21 ± 0.24 | 1.4026 ± 0.0005 |
